Ten molecules from US10793522B2, “Sulfonamides as inhibitors of the uptake of extracellular citrate” (Boehringer Ingelheim International GmbH, priority 2016, dated 2020) can be followed below.

pIC50: −log10 of the molar value. Bounds are passed on as bounds.

The test deals with T1, human GlyT2 (Homo sapiens, UniProt Q9Y345).
T1 construct: host or cells: HEK293 (HEK293-hGlyT2), cDNA sub-cloned into pcDNA3.1zeo
T1 sequence (Q9Y345 1-797): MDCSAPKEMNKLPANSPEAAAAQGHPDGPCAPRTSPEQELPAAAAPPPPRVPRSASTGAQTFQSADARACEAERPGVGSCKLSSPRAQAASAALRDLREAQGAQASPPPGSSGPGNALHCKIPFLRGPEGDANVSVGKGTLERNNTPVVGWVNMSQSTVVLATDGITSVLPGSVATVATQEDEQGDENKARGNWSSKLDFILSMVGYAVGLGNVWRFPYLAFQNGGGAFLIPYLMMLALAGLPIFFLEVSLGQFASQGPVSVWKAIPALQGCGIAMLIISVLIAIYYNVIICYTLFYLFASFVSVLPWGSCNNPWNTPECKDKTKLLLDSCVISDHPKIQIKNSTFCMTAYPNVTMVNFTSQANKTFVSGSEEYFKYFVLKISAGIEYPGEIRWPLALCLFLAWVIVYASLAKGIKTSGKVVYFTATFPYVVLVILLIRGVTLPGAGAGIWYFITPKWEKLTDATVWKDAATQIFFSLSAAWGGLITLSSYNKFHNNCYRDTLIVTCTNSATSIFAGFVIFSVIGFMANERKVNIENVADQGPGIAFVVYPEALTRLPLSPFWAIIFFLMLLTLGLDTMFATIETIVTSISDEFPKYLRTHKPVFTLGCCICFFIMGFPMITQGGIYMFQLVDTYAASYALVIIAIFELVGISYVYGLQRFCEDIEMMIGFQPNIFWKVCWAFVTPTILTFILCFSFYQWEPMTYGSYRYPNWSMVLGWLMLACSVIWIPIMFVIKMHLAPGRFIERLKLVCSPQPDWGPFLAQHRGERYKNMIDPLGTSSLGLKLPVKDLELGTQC
Description: Recombinant human GlyT2/3H-glycine uptake assay. It is filed as cell-based. The conditions noted are these: HEK293 cells over-expressing human GlyT2; Cytostar-T; 3H-glycine 100 nM; 2 hours. An excerpt: (6) Recombinant Human GlyT2/^3H-Glycine Uptake Assay
The human embryonic kidney 293 cell clone (HEK293-hGlyT2) over-expressing the human GlyT2 transporter was generated (the plasmid pCMV6-XL5-hGlyT2 containing the cDNA coding for the human GlyT2 transporter was obtained from Origene, the cDNA for GlyT2 was taken from this plasmid and sub-cloned into pcDNA3.1zeo from Invitrogen).
Human embryonic kidney 293 (HEK 293) cells are used that stably over-express the human GlyT2 […] which is responsible for the uptake of glycine into these cells.
The uptake of ^3H-glycine into the HEK 293 hGlyT2 cells is monitored using the Cytostar-T assay. This assay format is based on the imported radioactive glycine brought into proximity with the scintillant contained within the base of the plate by virtue of the biological processes within the cells. The radioactive decay is converted to a light signal based on the integration of the scintillation matrix into the assay plate.
Method: ^3H-Glycine Uptake Assay
The hGlyT2 over-expressing HEK 293 cells are cultivated in cell culture medium (DMEM+10% fetal calf serum+100 μg/mL Zeocin). For the assay, the medium of the 90% confluent cultures is removed and the cells are washed with DPBS. The cells are detached by the addition of 2 mL AccuMax and resuspended in 10 mL culture medium. The cell suspension is centrifuged at 1000 U/min for 5 min, the supernatant is removed and cells resuspended in expression medium (MEM (medium without glycine)+10% fetal calf serum) without glycine to 200,000 cells/mL and distributed into the Cytostar-T Scintillating 96-well Microplates (40,000 cells/well; 200 μl/well). The lid covered MTPs are then incubated for 24 hours at 37° C.; 5% CO2.
The following day, the cell plates are washed once with 200 μL HBSS/Ala buffer (HBSS 10× (+Ca, +Mg) with 5 mM Alanine adjusted to pH 7.4 with NaOH) following a 1 h incubation at 37° C.; 5% CO2, and subsequently 100 μL/well of HBSS/Ala containing 1.2× the concentration of compound in 1.2% DMSO (test range final: 100 μM-100 nM) incubated for 20 min at 37° C. Following the addition of 20 μL/well ^3H-glycine in HBSS/Ala (final ^3H-glycine concentration 100 nM) and an incubation for 2 hours at 37° C., the assay plate is placed into the Topcount NXT HTS and the signal is recorded.
The IC50 values of the compounds are calculated in IDBS XLfit by sigmoidal dose-response (variable slope).
As to `O=C(NCc1ccccc1F)C1CCN(S(=O)(=O)c2cc(Cl)cc(Cl)c2)CC1` [(I-2)], the negative logarithm of the IC50 (pIC50) is less than 4.00.

For the molecule `O=C(NCc1ccc(Cl)cc1)C1CCN(S(=O)(=O)c2cc(Cl)cc(Cl)c2)CC1` [(I-5)], the negative logarithm of the IC50 (pIC50) is less than 4.00.

On to `O=C(NCc1ccc(F)cc1)C1CCN(S(=O)(=O)c2cc(Cl)cc(Cl)c2)CC1` [(I-10)], for which the negative logarithm of the IC50 (pIC50) was less than 4.00.

`O=C(NCc1ccccn1)C1CCN(S(=O)(=O)c2cc(Cl)cc(Cl)c2)CC1` [(I-11)]: the negative logarithm of the IC50 (pIC50) is less than 4.00.

Regarding `Cc1ccc(CNC(=O)C2CCN(S(=O)(=O)c3cc(Cl)cc(Cl)c3)CC2)nc1` [(I-15)], the pIC50 was less than 4.00.

Regarding `O=C(NCc1ccc(F)cn1)C1CCN(S(=O)(=O)c2cc(Cl)cc(Cl)c2)CC1` [(I-20)], the pIC50 was less than 4.15.

Turning to `Cc1cnc(CNC(=O)C2CCN(S(=O)(=O)c3cc(Cl)cc(Cl)c3)CC2)s1` [(I-27)], the pIC50 was less than 4.00.

With `CCOc1cc(Cl)cc(S(=O)(=O)N2CCC(C(=O)NCc3nccs3)CC2)c1` [(I-49)], the pIC50 was less than 4.00.

Take `Cc1cc(Br)cc(S(=O)(=O)N2CCC(C(=O)NCc3ccccn3)CC2)c1` [(I-61)]: the negative logarithm of the IC50 (pIC50) was less than 4.00.

Consider `N#Cc1ccc(CNC(=O)C2CCN(S(=O)(=O)c3cc(Cl)cc(Cl)c3)CC2)cc1` [Example (I-1)], for which the negative logarithm of the IC50 (pIC50) was less than 4.00.

For orientation: pIC50 means the negative decadic logarithm of the IC50, by convention in mol/L.
